Experiment: refractive index (other wavelength) (dimensionless); xn = mol fraction of the nth substance listed
Conditions: 101 kPa, Liquid, Standard Abbe refractometry

CC(C)OC(C)C [diisopropyl ether] + CO
refractive index
Conditions	Wavelength=40.47 nm	Wavelength=435.8 nm	Wavelength=486.1 nm	Wavelength=546.1 nm	Wavelength=587.6 nm	Wavelength=589.3 nm	Wavelength=632.8 nm	Wavelength=644 nm	Wavelength=706.5 nm
298.15 K, x2 = 0	–	–	–	–	–	1.3653	1.36402	1.36373	1.36237
298.15 K, x2 = 0.0423	–	–	–	–	–	1.36528	1.364	1.3637	1.36228
298.15 K, x2 = 0.0424	–	–	–	–	–	1.36525	1.36397	1.36367	1.36226
298.15 K, x2 = 0.082	–	–	–	–	–	1.36523	1.36395	1.36365	1.36224
298.15 K, x2 = 0.0822	–	–	–	–	–	1.36524	1.36396	1.36367	1.36226
298.15 K, x2 = 0.1171	–	–	–	–	–	1.36508	1.36381	1.36352	1.3621
298.15 K, x2 = 0.1271	–	–	–	–	–	1.3651	1.36381	1.36352	1.36211
298.15 K, x2 = 0.1827	–	–	–	–	–	1.36473	1.36346	1.36317	1.36175
298.15 K, x2 = 0.2162	–	–	–	–	–	1.36528	1.364	1.3637	1.36228
298.15 K, x2 = 0.251	–	–	–	–	–	1.36465	1.36338	1.36308	1.36166
298.15 K, x2 = 0.3298	–	–	–	–	–	1.36386	1.3626	1.36231	1.36089
298.15 K, x2 = 0.3577	–	–	–	–	–	1.36246	1.36121	1.36091	1.35951
298.15 K, x2 = 0.4497	–	–	–	–	–	1.36158	1.36034	1.36004	1.35863
298.15 K, x2 = 0.4525	–	–	–	–	1.36217	1.36212	1.36087	1.36057	1.35916
298.15 K, x2 = 0.522	–	–	–	–	1.35991	1.35986	1.35863	1.35833	1.35694
298.15 K, x2 = 0.5543	–	–	–	–	1.35952	1.35947	1.35812	1.35777	1.35655
298.15 K, x2 = 0.609	–	–	–	–	1.35663	1.35658	1.35536	1.35507	1.35369
298.15 K, x2 = 0.6529	–	–	–	–	1.35515	1.3551	1.35389	1.3536	1.35223
298.15 K, x2 = 0.7504	–	–	–	–	1.3513	1.35125	1.35005	1.34978	1.34842
298.15 K, x2 = 0.804	–	–	–	–	1.3471	1.34706	1.3459	1.34562	1.34426
298.15 K, x2 = 0.807	–	–	–	–	1.34699	1.34694	1.34578	1.3455	1.34415
298.15 K, x2 = 0.8727	–	–	–	–	1.34182	1.34177	1.34062	1.34036	1.33906
298.15 K, x2 = 0.9233	–	–	–	–	1.33495	1.3349	1.33379	1.33353	1.33225
298.15 K, x2 = 0.9253	–	–	–	–	1.33679	1.33674	1.33564	1.33535	1.33407
298.15 K, x2 = 0.9527	–	–	–	–	1.33364	1.33359	1.33248	1.33222	–
298.15 K, x2 = 0.9773	–	–	–	–	1.33017	1.33012	1.32903	1.32879	1.32755
298.15 K, x2 = 0.989	–	–	–	–	1.329	1.32895	1.32786	1.32761	1.32641
298.15 K, x2 = 0.9964	–	–	–	–	1.32759	1.32754	1.32645	1.32621	1.32502
303.15 K, x2 = 0	1.37321	1.37022	1.36687	1.36406	1.3626	1.36255	1.3613	1.361	1.3596
303.15 K, x2 = 0.0423	1.37316	1.37019	–	–	–	–	–	–	–
303.15 K, x2 = 0.0424	1.37317	1.37022	1.36682	1.36403	1.36256	1.36251	1.36124	1.36094	1.35954
303.15 K, x2 = 0.082	1.3731	1.37014	1.36677	1.36396	1.3625	1.36245	1.3612	1.3609	1.35948
303.15 K, x2 = 0.0822	1.37318	1.37022	1.36685	1.36406	1.36261	1.36256	1.36129	1.36099	–
303.15 K, x2 = 0.1171	1.37301	1.37006	1.36669	1.36389	1.36245	1.3624	1.36114	1.36084	1.35943
303.15 K, x2 = 0.1271	1.37303	1.37006	1.36672	1.36392	1.36246	1.3624	1.36116	1.36086	1.35944
303.15 K, x2 = 0.1827	1.37268	1.36973	1.36639	1.36258	1.36214	1.36209	1.36085	1.36055	1.35913
303.15 K, x2 = 0.2162	1.37251	1.36956	1.36618	1.36341	1.36196	1.36191	1.36065	1.36036	1.35895
303.15 K, x2 = 0.251	1.3735	1.36955	1.36621	1.36343	1.36198	1.36193	1.36068	1.36039	1.35898
303.15 K, x2 = 0.3298	1.37186	1.36893	1.36561	1.36283	1.3614	1.36134	1.36011	1.35981	1.35839
303.15 K, x2 = 0.3577	1.37205	1.36912	1.36581	1.36302	1.36159	1.36153	1.36029	1.35999	1.35898
303.15 K, x2 = 0.4497	1.3695	1.36661	1.36334	1.36058	1.35917	1.35912	1.35789	1.3576	1.35619
303.15 K, x2 = 0.4525	1.37001	1.36711	1.36382	1.36107	1.35964	1.35959	1.35835	1.35805	1.35666
303.15 K, x2 = 0.522	1.3677	1.36484	1.36159	1.35886	1.35746	1.35741	1.35619	1.3559	1.3545
303.15 K, x2 = 0.5543	1.36716	1.36432	1.36106	1.35836	1.35695	1.3569	1.35568	1.35539	1.35399
303.15 K, x2 = 0.609	1.36428	1.36149	1.35828	1.35561	1.35421	1.35416	1.35295	1.35266	1.35129
303.15 K, x2 = 0.6529	1.36277	1.35999	1.35681	1.35414	1.35275	1.35269	1.3515	1.35122	1.34985
303.15 K, x2 = 0.7504	1.35877	1.35604	1.35295	1.35029	1.34898	1.34888	1.34771	1.34743	1.34608
303.15 K, x2 = 0.804	1.35438	1.35174	1.34869	1.34608	1.34474	1.34469	1.34354	1.34327	1.34193
303.15 K, x2 = 0.807	1.35432	1.35168	1.34861	1.34603	1.34467	1.34462	1.34346	1.3432	1.34186
303.15 K, x2 = 0.8727	1.34909	1.34651	1.34352	1.34092	1.33965	1.3396	1.33846	1.3382	1.33691
303.15 K, x2 = 0.9233	1.34198	1.3395	1.33657	1.33409	1.33279	1.33274	1.33164	1.33139	1.33015
303.15 K, x2 = 0.9253	1.34381	1.34132	1.33839	1.3359	1.33458	1.33453	1.33342	1.33317	1.3319
303.15 K, x2 = 0.9527	1.34063	1.33817	1.33525	1.33279	1.3315	1.33145	1.33035	1.33009	1.32886
303.15 K, x2 = 0.9773	1.33704	1.33466	1.33174	1.32933	1.32803	1.32799	1.32689	1.32665	1.32546
303.15 K, x2 = 0.989	1.33587	1.33351	1.33062	1.3282	1.32693	1.32688	1.32579	1.32555	1.32216
303.15 K, x2 = 0.9964	1.33483	1.33219	1.32929	1.32688	1.32561	1.32557	1.32451	1.32427	1.32308
308.15 K, x2 = 0	1.37035	–	–	–	–	–	–	–	–
308.15 K, x2 = 0.0423	1.37024	–	–	–	–	–	–	–	–
308.15 K, x2 = 0.0424	1.37025	–	–	–	–	–	–	–	–
308.15 K, x2 = 0.082	1.37021	–	–	–	–	–	–	–	–
